Patent US20180179198A1, “TRICYCLIC MODULATORS OF TNF SIGNALING” (AbbVie Inc., priority 2015, published 2018)

Molecular target: TNFα trimer (Homo sapiens, UniProt P01375)
Test: TNFα FP Competitive Binding Assay
Conditions: TNFα FP competitive binding assay; class symbols A/B/C; read-out: TNF IC50
How it was run: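 Compounds, 12-point 1:3 dilutions topping at 100 μM (2.0% DMSO) or 338 μM (3.4% DMSO) final, compete with 1 nM fluorescent probe for 20 nM TNFα trimer in HEPES/NaCl/EDTA/Triton buffer. After 18-24 h incubation at 37 °C plus 1 h rt equilibration, background-subtracted polarization is read and fitted with variable slope.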

Sequence of TNFα trimer (P01375 77-233 limits assumed): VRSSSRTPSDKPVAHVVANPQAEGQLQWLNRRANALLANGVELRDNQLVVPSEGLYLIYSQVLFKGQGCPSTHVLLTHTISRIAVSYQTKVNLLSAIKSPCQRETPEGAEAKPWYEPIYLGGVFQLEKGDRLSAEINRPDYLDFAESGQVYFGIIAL

Compound | IC50 [nM]
COc1ccccc1C1CCCCc2nc3ccc(-c4cnc(N5CCOCC5)nc4)cn3c21 (stereo not shown) [S.1] | < 1000
CCOC(=O)CNc1ncc(-c2ccc3nc4c(n3c2)C(c2ccccc2OC)CCCC4)cn1 (stereo not shown) [S.2] | 1000 to 10000
COc1ccccc1C1CCCCc2nc3ccc(-c4cnc(NCC(=O)O)nc4)cn3c21 (stereo not shown) [S.3] | 1000 to 10000
COc1ccccc1C1CCCCc2nc3ccc(-c4cnc(C(C)(C)O)nc4)cn3c21 (stereo not shown) [S.4] | < 1000
COc1ncc(-c2ccc3nc4n(c3c2)C(c2ccccc2)COC4)cc1F (stereo not shown) [T.1] | 1000 to 10000
CS(=O)(=O)c1ccc(-c2ccc3nc4n(c3c2)C(c2ccccc2)COC4)cn1 (stereo not shown) [T.2] | 1000 to 10000
c1ccc(C2COCc3nc4ccc(-c5cnc6nonc6c5)cc4n32)cc1 (stereo not shown) [T.3] | 1000 to 10000
FC(F)(F)COc1ccc(-c2ccc3nc4n(c3c2)C(c2ccccc2)COC4)cn1 (stereo not shown) [T.4] | 1000 to 10000
CC(C)Oc1ccc(-c2ccc3nc4n(c3c2)C(c2ccccc2)COC4)cn1 (stereo not shown) [T.5] | 1000 to 10000
CC(=O)Nc1ccc(-c2ccc3nc4n(c3c2)C(c2ccccc2)COC4)cn1 (stereo not shown) [T.6] | 10000 to 100000
COc1ncc(-c2ccc3nc4n(c3c2)C(c2ccccc2)COC4)cc1C (stereo not shown) [T.7] | 1000 to 10000
Cc1nccn1-c1cnc(-c2ccc3nc4n(c3c2)C(c2ccccc2)COC4)cn1 (stereo not shown) [T.8] | 1000 to 10000
c1ccc(C2COCc3nc4ccc(-c5cnc(-n6ccnc6)cn5)cc4n32)cc1 (stereo not shown) [T.9] | 1000 to 10000
c1ccc(C2COCc3nc4ccc(-c5ccc(N6CCNCC6)nc5)cc4n32)cc1 (stereo not shown) [T.10] | 1000 to 10000
CN1CCOc2cc(-c3ccc4nc5n(c4c3)C(c3ccccc3)COC5)cnc21 (stereo not shown) [T.11] | 1000 to 10000
Cc1cc(-c2ccc3nc4n(c3c2)C(c2ccccc2)COC4)cnc1N1CCOCC1 (stereo not shown) [T.12] | 1000 to 10000
CC(=O)N1CCN(c2ccc(-c3ccc4nc5n(c4c3)C(c3ccccc3)COC5)cn2)CC1 (stereo not shown) [T.13] | 1000 to 10000
CN(C)c1ncc(-c2ccc3nc4n(c3c2)C(c2ccccc2)COC4)cn1 (stereo not shown) [T.14] | 1000 to 10000
N#Cc1ncc(-c2ccc3nc4n(c3c2)C(c2ccccc2)COC4)cn1 (stereo not shown) [T.15] | 1000 to 10000
N#Cc1ccc(-c2ccc3nc4n(c3c2)C(c2ccccc2)COC4)cn1 (stereo not shown) [T.16] | 1000 to 10000
c1ccc(C2COCc3nc4ccc(-c5cnc(NC6CCCC6)nc5)cc4n32)cc1 (stereo not shown) [T.17] | 1000 to 10000

Compound | IC50 [nM]
Cc1ccc(-c2ccc3nc4n(c3c2)C(c2ccccc2)COC4)cn1 (stereo not shown) [T.18] | 1000 to 10000
c1ccc(C2COCc3nc4ccc(-c5cnc6nccnc6c5)cc4n32)cc1 (stereo not shown) [T.19] | 10000 to 100000
CN1CCN(c2ccc(-c3ccc4nc5n(c4c3)C(c3ccccc3)COC5)cn2)CC1 (stereo not shown) [T.20] | 1000 to 10000
c1ccc(C2COCc3nc4ccc(-c5cnc(-n6cccn6)cn5)cc4n32)cc1 (stereo not shown) [T.21] | 1000 to 10000
COc1ncc(-c2ccc3nc4n(c3c2)C(c2ccccc2)COC4)cn1 (stereo not shown) [T.22] | 1000 to 10000
c1ccc(C2COCc3nc4ccc(-c5cnc(-n6cccn6)nc5)cc4n32)cc1 (stereo not shown) [T.23] | 1000 to 10000
c1ccc(C2COCc3nc4ccc(-c5cnc(NC6CC6)nc5)cc4n32)cc1 (stereo not shown) [T.24] | 1000 to 10000
c1ccc(C2COCc3nc4ccc(-c5ccc(N6CCOCC6)nc5)cc4n32)cc1 (stereo not shown) [T.25] | < 1000
c1ccc(C2COCc3nc4ccc(-c5cncnc5)cc4n32)cc1 (stereo not shown) [T.26] | 10000 to 100000
c1ccc(C2COCc3nc4ccc(-c5ccc(NCCN6CCOCC6)nc5)cc4n32)cc1 (stereo not shown) [T.28] | 10000 to 100000
c1ccc(C2COCc3nc4ccc(-c5cnc6ccoc6c5)cc4n32)cc1 (stereo not shown) [T.29] | 1000 to 10000
Cc1cc(-c2ccc3nc4n(c3c2)C(c2ccccc2)COC4)cnc1OC(C)C (stereo not shown) [T.30] | 1000 to 10000
Cc1ncc(-c2ccc3nc4n(c3c2)C(c2ccccc2)COC4)cn1 (stereo not shown) [T.31] | 1000 to 10000
Cn1cnc2cc(-c3ccc4nc5n(c4c3)C(c3ccccc3)COC5)cnc21 (stereo not shown) [T.32] | 10000 to 100000
FC(F)(F)c1ccc(-c2ccc3nc4n(c3c2)C(c2ccccc2)COC4)cn1 (stereo not shown) [T.33] | 1000 to 10000
Cc1cc(-c2ccc3nc4n(c3c2)C(c2ccccc2)COC4)cnc1N1CCN(C)CC1 (stereo not shown) [T.34] | 1000 to 10000
CC(C)(O)c1ncc(-c2ccc3nc4n(c3c2)C(c2ccccc2)COC4)cn1 (stereo not shown) [T.35] | < 1000
Fc1ccc(F)c(C2COCc3nc4ccc(-c5cnc(N6CCOCC6)nc5)cc4n32)c1 (stereo not shown) [U.1] | < 1000
Fc1cccc(C2COCc3nc4ccc(-c5cnc(N6CCOCC6)nc5)cc4n32)c1 (stereo not shown) [U.2, 4-(3-Fluorophenyl)-7-(2-morpholinopyrimidin-5-yl)-3,4-dihydro-1H-benzo[4,5]imidazo[2,1-c][1,4]oxazine] | 1000 to 10000
O=C1NCC2CN(c3ncc(-c4ccc5nc6n(c5c4)C(c4cccc(F)c4)COC6)cn3)CCN12 (stereo not shown) [V.1] | < 1000
O=C1NCC2CN(c3ncc(-c4ccc5nc6n(c5c4)C(c4ccccc4Cl)COC6)cn3)CCN12 (stereo not shown) [V.2] | < 1000

Compound | IC50 [nM]
O=C1NCC2CN(c3ncc(-c4ccc5nc6n(c5c4)C4(CCc5ccccc54)COC6)cn3)CCN12 (stereo not shown) [V.3] | < 1000
OC1CCN(c2ncc(-c3ccc4nc5n(c4c3)[C@@H](c3ccccc3)COC5)cn2)CC1(F)F (stereo partly shown) [W.1] | < 1000
OC1CC2(CCN(c3ncc(-c4ccc5nc6n(c5c4)[C@@H](c4ccccc4)COC6)cn3)CC2)C1 [W.2] | < 1000
O=S1(=O)CCN(c2ncc(-c3ccc4nc5n(c4c3)[C@@H](c3ccccc3)COC5)cn2)CC1 [W.3] | < 1000
OC1CCN(c2ncc(-c3ccc4nc5n(c4c3)C(c3cccc(F)c3)COC5)cn2)CC1(F)F (stereo not shown) [X.1] | < 1000
OC1CC2(CCN(c3ncc(-c4ccc5nc6n(c5c4)C(c4cccc(F)c4)COC6)cn3)CC2)C1 (stereo not shown) [X.2] | < 1000
Fc1cccc(C2COCc3nc4ccc(-c5cnc(N6CCCOCC6)nc5)cc4n32)c1 (stereo not shown) [X.3] | < 1000
c1ccc([C@H]2CCCc3nc4ccc(-c5cnc(N6CCOCC6)nc5)cc4n32)cc1 [Y.1] | < 1000
CC(C)(O)c1ncc(-c2ccc3nc4n(c3c2)[C@@H](c2ccccc2)CCC4)cn1 [Y.2] | < 1000
CC(C)(O)c1ncc(-c2ccc3nc4n(c3c2)[C@H](c2ccccc2)CCC4)cn1 [Y.3] | 1000 to 10000
CC(C)(O)c1ncc(-c2ccc3nc4n(c3c2)[C@H](c2ccccc2)CC4)cn1 [Y.4] | 10000 to 100000
COc1ccccc1[C@@H]1CCCc2nc3ccc(-c4cnc(C(C)(C)O)nc4)cn3c21 [Y.5] | 1000 to 10000
COc1ccccc1[C@H]1CCCc2nc3ccc(-c4cnc(C(C)(C)O)nc4)cn3c21 [Y.6] | < 1000
Fc1cccc([C@H]2COCc3nc4ccc(-c5cnc(N6CCOCC6)nc5)cc4n32)c1 [Y.7] | < 1000
Cc1ccc(C)c([C@H]2CCc3nc4ccc(-c5cnc(C(C)(C)O)nc5)cc4n32)c1 [Y.8] | < 1000
Cc1ccc(C)c([C@@H]2CCc3nc4ccc(-c5cnc(C(C)(C)O)nc5)cc4n32)c1 [Y.9] | 1000 to 10000
c1ccc([C@H]2CCc3nc4ccc(-c5cnc(N6CCOCC6)nc5)nc4n32)cc1 [Y.10] | < 1000
OC1CCN(c2ncc(-c3ccc4nc5n(c4n3)[C@@H](c3ccccc3)CC5)cn2)CC1 [Y.11] | < 1000
CC(C)(O)c1ncc(-c2ccc3nc4n(c3n2)[C@@]2(COC4)COc3ccccc32)cn1 [Y.13] | < 1000

Same assay, conditions: fluorescence polarization competition; 20 nM TNFα trimer, 1 nM OregonGreen488 probe; read-out: TNF IC50 (TNFα FP binding assay IC50)

Compound | IC50 [nM]
O=C1CN(c2ncc(-c3ccc4nc5n(c4n3)C(c3ccccc3)CC5)cn2)CCN1 (stereo not shown) [L.2] | < 1000
OC1CCN(c2ncc(-c3ccc4nc5n(c4n3)C(c3ccccc3)CC5)cn2)CC1 (stereo not shown) [L.3, 1-(5-(8-phenyl-7,8-dihydro-6H-pyrrolo[2′,1′:2,3]imidazo[4,5-b]pyridin-2-yl)pyrimidin-2-yl)piperidin-4-ol] | < 1000
O=C1NCC2CN(c3ncc(-c4ccc5nc6n(c5n4)C(c4ccccc4)CC6)cn3)CCN12 (stereo not shown) [L.4] | < 1000
Fc1cccc(C2CCc3nc4ccc(-c5cnc(N6CCOCC6)nc5)nc4n32)c1 (stereo not shown) [M.1] | < 1000
CC(C)(O)c1ncc(-c2ccc3nc4n(c3n2)C(c2cccc(F)c2)CC4)cn1 (stereo not shown) [M.2] | < 1000
O=C1CN(c2ncc(-c3ccc4nc5n(c4n3)C(c3cccc(F)c3)CC5)cn2)CCN1 (stereo not shown) [M.3] | < 1000
OC1CCN(c2ncc(-c3ccc4nc5n(c4n3)C(c3cccc(F)c3)CC5)cn2)CC1 (stereo not shown) [M.4, 1-(5-(8-(3-fluorophenyl)-7,8-dihydro-6H-pyrrolo[2′,1′:2,3]imidazo[4,5-b]pyridin-2-yl)pyrimidin-2-yl)piperidin-4-ol] | < 1000
O=C1NCC2CN(c3ncc(-c4ccc5nc6n(c5n4)C(c4cccc(F)c4)CC6)cn3)CCN12 (stereo not shown) [M.5] | < 1000
Cc1ccc(C)c(C2CCc3nc4ccc(-c5cnc(N6CCOCC6)nc5)nc4n32)c1 (stereo not shown) [N.1] | < 1000
Cc1ccc(C)c(C2CCc3nc4ccc(-c5cnc(N6CCNC(=O)C6)nc5)nc4n32)c1 (stereo not shown) [N.2] | < 1000
Cc1ccc(C)c(C2CCc3nc4ccc(-c5cnc(N6CCC(O)CC6)nc5)nc4n32)c1 (stereo not shown) [N.3] | < 1000
Cc1ccc(C)c(C2CCc3nc4ccc(-c5cnc(N6CCN7C(=O)NCC7C6)nc5)nc4n32)c1 (stereo not shown) [N.4] | < 1000
c1ccc(C2CCCc3nc4ccc(-c5cnc(N6CCOCC6)nc5)nc4n32)cc1 (stereo not shown) [O.1] | < 1000
CC(C)(O)c1ncc(-c2ccc3nc4n(c3n2)C(c2ccccc2)CCC4)cn1 (stereo not shown) [O.2] | < 1000
O=C1CN(c2ncc(-c3ccc4nc5n(c4n3)C(c3ccccc3)CCC5)cn2)CCN1 (stereo not shown) [O.3] | < 1000
OC1CCN(c2ncc(-c3ccc4nc5n(c4n3)C(c3ccccc3)CCC5)cn2)CC1 (stereo not shown) [O.4] | < 1000
c1ccc(C2CCc3nc4cnc(-c5cnc(N6CCOCC6)nc5)cc4n32)cc1 (stereo not shown) [P.1] | 1000 to 10000
CC(C)(O)c1ncc(-c2cc3c(cn2)nc2n3C(c3ccccc3)CC2)cn1 (stereo not shown) [P.2] | 1000 to 10000
O=C1CN(c2ncc(-c3cc4c(cn3)nc3n4C(c4ccccc4)CC3)cn2)CCN1 (stereo not shown) [P.3] | 10000 to 100000
O=C1CN(c2ncc(-c3cnc4nc5n(c4c3)C(c3ccccc3)CCC5)cn2)CCN1 (stereo not shown) [Q.1] | 10000 to 100000
COc1ccccc1C1CCCc2nc3ccc(-c4ccc(OCC(=O)O)nc4)cn3c21 (stereo not shown) [R.1] | < 1000
